From US9456997B2, “Selective inhibition of β1-adrenergic receptors for the treatment of pediatric heart failure” (THE REGENTS OF THE UNIVERSITY OF COLORADO, A BODY CORPORATE, priority 2010, dated 2016)
Entries after “also recorded” stand apart in the source; their conditions may differ. Like-named read-outs stand apart in the source and are kept apart here.

Columns and labels:
[1] = test system: isoproterenol challenged young and old mice; test: Mouse model of pediatric heart failure: cardiac growth (HW/BW) in response to isoproterenol with or without β-blocker; format: in vivo; details: for pathologic growth response to isoproterenol: isoproterenol 7 days, β-blocker via subcutaneously implanted pump; for heart weight to body weight ratio (HW/BW), response to ISO: older mice; for heart weight to body weight ratio (HW/BW), response to ISO / cardiac growth response to ISO (HW/BW): isoproterenol 30 mg/kg/day 7 days, β-blocker in drinking water, versus same age ISO
Experimental: (§1) Since a primary characteristic of human heart failure is endogenous catecholamine (epinephrine and norepinephrine; full β1 and β2 receptor agonists) excess, they challenged the mice with isoproterenol (an exogeous full β1 and β2 receptor agonist) for 7 days using a subcutaneous miniosmotic pump at a dose (30 mg/kg/day) that has previously been associated with cardiac hypertrophy in adult mice and has been used as a model of cardiac hypertrophy and heart failure in adult […]. Higher doses (120 mg/kg/day) for 14 days cause a dilated heart failure phenotype, providing further evidence that this is an appropriate HF model. Half the animals received the isoproterenol treatment and the other half were treated with placebo pumps filled with normal saline and vitamin C, the vehicle that the isoproterenol is dissolved in. The young and old animals were divided into 2 studies: one for carvedilol treatment and one for metoprolol treatment (the study design for each animal study is illustrated in FIG. 8). […] The amount of water consumed was measured on a daily basis and all groups consumed similar amounts of water. In a second study to further support hypothesis (i) above and provide evidence of a class effect among β1-selective antagonists, young mice were divided into 2 studies one for bisoprolol and one for nebivolol. […] After 7 days of treatment, the hearts were removed and assessed for cardiac growth in response to isoproterenol with or without the β-blocker. Protein was isolated from the hearts of young and old mice in the presence or absence of isopreterenol without any β-blocker treatment assessed for phosphorylation of phospholamban by Western blot as outlined above.

[2] = test system: HF patients (adult population); details: cited from earlier work
β1 and β2 receptors = details: cited from earlier work; for β1 receptor selectivity: in words
caspase 3 = test: Caspase 3 levels in young mouse hearts by Western blot; format: in vivo; details: young mice, heart, one week of treatment, versus placebo
Experimental: (§2) Western blots were performed as previously described by the inventors. Antibodies for total and phosphorylated PLB were diluted 1:15000 and antibodies for total and phosphorylated Akt were diluted 1:1000 in 1×TBS (20 mM Tris 500 mM NaCl pH 7.5) containing 3% BSA and 0.1% tween and incubated with the blot overnight at 4° C.
(§3) To address hypothesis (iv) above a third study was performed in the young mice to provide evidence of the beneficial effects of exogenous β2-selective agonism with fenoterol. […] The methodology was identical to that outlined in the carvedilol and metoprolol studies above. Protein was isolated from the placebo, fenoterol and isoproterenol treated mouse hearts and phosphorylation of Akt and expression of Caspase 3 was determined to confirm the beneficial effects of fenoterol treatment.

Akt = test: Phosphorylation of Akt in young mouse hearts by Western blot; format: in vivo; details: young mice, heart, one week of treatment, versus placebo
Experimental: as §2, §3

[3] = test system: adult mouse models of myocardial infarction; details: adult mouse models of myocardial infarction (Ahmet, 2004; 2005; 2008); cited from earlier work
[4] = test system: phospholamban (Ser16, Thr17); test: Phospholamban phosphorylation in mouse hearts by Western blot; format: in vivo; details: isoproterenol challenged versus control
Experimental: as §2, §1

[5] = test system: children with heart failure; details: Pediatric Carvedilol Trial, cited from earlier work

OC(CNCC(O)C1CCc2cc(F)ccc2O1)C1CCc2cc(F)ccc2O1 (stereo not shown) [Nebivolol]
pathologic growth response to isoproterenol ([1]; young mice): significantly suppressed | pathologic growth response to isoproterenol ([1]; young mice, listed as nebivolol): significant blunting | Mortality or Hospitalization Benefit, RR reduction ([2]; SENIORS trial): 14% RR | β1 receptor selectivity (β1 and β2 receptors): higher selectivity than Metoprolol

CC(Cc1ccc(O)cc1)NCC(O)c1cc(O)cc(O)c1 (stereo not shown) [Fenoterol, fenoterol]
caspase 3 levels (caspase 3; listed as fenoterol): maintaining only basal levels; also recorded: did not induce | phosphorylation of Akt (Akt): induced | phosphorylation of Akt (Akt; listed as fenoterol): increasing | myocardial remodeling and function [3]: improvements in myocardial remodeling and function

CC(C)NCC(O)c1ccc(O)c(O)c1 (stereo not shown) [Isoproterenol, isoproterenol]
caspase 3 levels (caspase 3): increased | pathologic cardiac growth produced by the agonist ([1]; young and old mice, 30 mg/kg/day for 7 days, subcutaneous miniosmotic pump): significant pathologic cardiac growth | growth response elicited by the agonist ([1]; young mice, placebo (no β-blocker) treated animals, bisoprolol and nebivolol cohorts): significant growth response | phosphorylation of Akt (Akt): decreased | phospholamban phosphorylation at serine 16 ([4]; old (adult) mice): dephosphorylated; also recorded: lower | phospholamban phosphorylation at threonine 17 ([4]; old (adult) mice): dephosphorylated; also recorded: lower | phospholamban phosphorylation at serine 16 ([4]; young mice): unchanged | phospholamban phosphorylation at threonine 17 ([4]; young mice): unchanged

CC(C)NCC(O)COc1ccc(COCCOC(C)C)cc1 (stereo not shown) [Bisoprolol]
pathologic growth response to isoproterenol ([1]; young mice): significantly suppressed | pathologic growth response to isoproterenol ([1]; young mice, listed as bisoprolol): significant blunting | Mortality Benefit, RR reduction ([2]; CIBIS trial): 32% RR | β1 receptor selectivity (β1 and β2 receptors): higher selectivity than Metoprolol

COCCc1ccc(OCC(O)CNC(C)C)cc1 (stereo not shown) [Metoprolol]
heart weight to body weight ratio (HW/BW), response to ISO [1]: lower | cardiac growth response to ISO (HW/BW) ([1]; young mice): blunted | cardiac growth response to ISO (HW/BW) ([1]; young mice, listed as metoprolol): demonstrated benefit | Mortality Benefit, RR reduction ([2]; MERIT-HF trial): 34% RR | β1 receptor selectivity (β1 and β2 receptors): selectively blocks the β1 receptor

COc1ccccc1OCCNCC(O)COc1cccc2[nH]c3ccccc3c12 (stereo not shown) [Carvedilol]
heart weight to body weight ratio (HW/BW), response to ISO [1]: lower | cardiac growth response to ISO (HW/BW) ([1]; young mice): no benefit | cardiac growth response to ISO (HW/BW) ([1]; young mice, listed as Coreg): no influence | Mortality Benefit, RR reduction ([2]; CAPRICORN trial): 23% RR | Mortality Benefit, RR reduction ([2]; COPERNICUS trial): 35% RR | Mortality Benefit, RR reduction ([2]; US Coreg HF trial): 65% RR | blockade of β2 receptors relative to β1 receptors (β1 and β2 receptors; β2 over β1): up to 7 times | Outcome (clinical benefit) ([5]; listed as carvedilol): lack of clinical benefit | Outcome (clinical benefit) [5]: no clinical benefit
